Where two headings read alike, the source gives them in different places.
Key:
[1] = In vivo pharmacokinetics (PK) in mice dosed PO
[2] = system: STAT3 phosphorylation (Y705); test: Western blot of STAT3 phosphorylation in medulloblastoma cells; type: cell-based, human
Text: (§1) Cells was harvested and extracted using cell lysis buffer (Cell Signaling) supplemented with phosphatase and protease inhibitors. Tumors from mice were grinded in the liquid nitrogen, and extracted proteins using cell lysis buffer supplemented with phosphatase and protease inhibitors. Extracted protein samples were separated by 10% SDS-PAGE and transferred to polyvinylidene difluoride membranes. After blocking with TBS-T buffer containing 5% skim milk (Lab Scientific Inc) at room temperature for 1 h, each membrane was incubated at 4 °C overnight with one of the following primary antibodies at 1:1,000 dilution: rabbit anti-phosphorylated STAT3 (Y705), rabbit anti-STAT3, rabbit anti-phosphorylated STAT1 (Y701), rabbit anti-STAT1, rabbit anti-Cyclin D1, rabbit anti-Survivin, and rabbit anti-GAPDH. Subsequently, each membrane was washed with TBS-T and incubated with horseradish peroxidase-conjugated secondary antibody (1:10,000) at room temperature for 1.5 h. Proteins of interest were visualized using SUPERSIGNAL West Femto Maximum Sensitivity Substrate (Thermo, #34096). Quantification was performed using ImageJ.

Cyclin D1 and Survivin = test: Western blot of STAT3 downstream targets in medulloblastoma cells; type: cell-based, human; details: D283, D425, UW426, UW288 cells; 0.5 to 2.5 μM, 16 h
Text: as §1

P-AKT = test: Western blot of P-AKT in medulloblastoma cells; type: cell-based, human; details: 4 or 8 h
P-ERK = test: Western blot of P-ERK in medulloblastoma cells; type: cell-based, human; details: 0.5 to 2.5 μM, 4 or 8 h
[3] = system: IL-6 induced phosphorylation of STAT3; test: IL-6 stimulated P-STAT3 in DaoY cells (Western blot); type: cell-based, human; details: 1 and 2.5 μM for 4 h, then IL-6 50 ng/mL 30 min
Text: as §1
(§2) To verify the selective toxicity of LLL12B, DaoY human medulloblastoma cell line was used and treated with LLL12B (1 and 2.5 μM) or DMSO for 4 h followed by induction of IL-6 or INF-γ (50 ng/mL) for 30 min. […]

[4] = system: INF-γ stimulated STAT1 phosphorylation; test: INF-γ induced P-STAT1 in DaoY cells (Western blot); type: cell-based, human; details: 1 and 2.5 μM for 4 h, then INF-γ 50 ng/mL 30 min
Text: as §1, §2

[5] = system: D425 medulloblastoma cells; test: MTT cell viability assay, D425; type: cell-based, human; details: 0.5 μM, 48 h, siRNA transfection experiment
Method: SignalSilence STAT3 siRNA I was purchased from Cell Signaling (#6580) and medulloblastoma cells were transfected using Lipofectamine 2000 reagent (Invitrogen). The sequence of STAT3 siRNA: GGUCCCUCAUCCUGUUUGU, ACAAACAGGAUGAGGGACC. AMBION SILENCER Negative Control siRNA (#AM4611) was purchased from Invitrogen. Cells were seeded in 96-well plates (8,000 cells/well) and allowed to adhere overnight. siRNA and Lipofectamine 2000 were diluted at 1:50 in Opti-MEM medium respectively. Gently mixed and incubated at room temperature for 5 min, and then the diluted siRNA was added to the diluted Lipofectamine 2000 reagent (1:1 ratio) with an additional incubation of 25 min. The final concentration of siRNA was 100 nM. After that, culture medium was replaced by Lipofectamine 2000 reagent: siRNA complexes and cultured for 24 h. After transfection, cells were treated with LLL12B or DMSO only for 48 h, and then cell viability was measured by MTT assay.
Cells were seeded in 96-well plates at a density of 3,000 cells. After overnight attachment, cells were treated with different concentrations of LLL12B and/or cisplatin or DMSO alone. After 72 h treatment, 20 μL of MTT solution was added for 4 h of additional culture, and then 150 μL of DMF solubilization solution was added with shaking overnight in the dark. Absorbance was measured at 595 nm. Combination index (CI) was calculated using ComuSyn software. […]

active caspase-3/7 = test: Apoptosis assay (Caspase-3/7 Fluorescence Assay Kit); type: cell-based, human; details: D425, D283, UW426 cells; LLL12B 1 μM, cisplatin 2.5 μM, 5 h
Method: Cells were plated in 96-well plates (8000–12,000 cells/well) and allowed to adhere overnight. Cells were treated with LLL12B or DMSO only. After 5 h treatment, active caspase-3/7 were measured using Caspase-3/7 Fluorescence Assay Kit (Cayman, Ann Arbor, MI) according to the manufacture’s instruction. Briefly, cells were centrifuged in the plate (800 g, 5 min) and the culture medium was aspirated, and then 200 µL of assay buffer was added to each well to wash the cells and the supernatant was removed after centrifuge. After that, 100 µL of cell-based assay lysis buffer was added to each well with shaking for 30 min at room temperature. Subsequently, 90 µL of the supernatant from each well was transferred to a corresponding well in a new black 96-well plate and 10 µL of assay buffer was added to appropriate wells. The plate was incubated at 37 °C for 90 min followed by addition of 100 µL of the caspase-3/7 substrate solution. Finally, the fluorescence intensity of each well was read at excitation 485 nm and emission 535 nm. All treatments were performed in triplicate.

[6] = system: D283 medulloblastoma cells; test: Tumorsphere formation, D283; type: cell-based, human; details: LLL12B 0.5 and 1 μM and/or cisplatin 0.5 and 1 μM, 8 days
Method: (§3) Cells were seeded (10,000 cells/mL) in ultra-low attachment 6-wells plates and treated with different concentrations of LLL12B and/or cisplatin or DMSO alone for 8 days. One-half of the culture volume of fresh 3D Tumorsphere Medium XF was added every 4 days. Images were captured on a Nikon Eclipse TS100 microscope. Original magnification, × 10.

[7] = system: D425 medulloblastoma cells; test: Tumorsphere formation, D425; type: cell-based, human; details: LLL12B 0.5 and 1 μM and/or cisplatin 0.5 and 1 μM, 8 days
Method: as §3

[8] = system: D283 medulloblastoma xenografts; test: D283 tumor xenograft model in nude mice; type: in vivo; details: for STAT3 phosphorylation in tumors: Western blot, LLL12B 2.5 mg/kg and/or cisplatin 5 mg/kg
Method: (§4) All animal studies were carried out in accordance with the standard procedures approved by the Institutional Animal Care and Use Committee (IACUC) of University of Maryland School of Medicine and University of Florida respectively. Furthermore, our animal studies were performed in compliance with the ARRIVE guidelines. Cells (1 × 10^7 cells/sites) were suspended in PBS mixed with matrigel (1:1, Corning, # 354234) and injected subcutaneously into the flank region of 4 to 5 week-old female athymic nude mice (Envigo). When the volume of the tumors reached approximately 100 mm^3, mice were randomized into four groups: (1) LLL12B (2.5 mg/kg) treated orally once daily only, (2) cisplatin (5 mg/kg) intraperitoneal injection treated once every four days only, (3) combination of LLL12B (2.5 mg/kg) oral once daily and cisplatin (5 mg/kg) intraperitoneal injection once every four days and (4) vehicle only once daily. Tumor growth was determined by measuring the minor (W) and major (L) diameter once every other day with a caliper, and calculated according to the following equation: tumor volume = 0.5236 × L × W^2. Body weight and clinical signs were monitored once every other day. In vivo PK studies in mice were performed by Dr. Chenglong Li’s laboratory at the University of Florida.
Figure 6 LLL12B suppressed tumor growth in medulloblastoma xenografts. (A) Tumor volume, (B) Tumor weights. (C) Tumor samples. (D) Body weights. (E) Western blot of tumor samples. The protein expression levels of P-STAT3(Y705), STAT3, and GAPDH. D283 cells (1 × 10^7 cells/tumor) were harvested and suspended in PBS and then implanted subcutaneously with matrigel (1:1 ratio) into the flank region of 4 to 5 week-old female athymic nude mice. Mice were randomized into three groups (6 mice for each group) and treated with LLL12B (2.5 mg/kg or 5 mg/kg, oral gavage, once daily).
Figure 9 LLL12B and cisplatin combination suppressed tumor growth in D283 medulloblastoma xenografts. (A) Tumor volumes. (B) Tumor weights. (C) Body weight. (D) Western blots to analyze protein expression in the representative tumor samples. Expression levels of p-STAT3(Y705), STAT3, CyclinD1, Survivin, and GAPDH. D283 medulloblastoma cells (1 × 10^7 cells/tumor) were implanted subcutaneously into the flank region of 4 to 5 week-old female athymic nude mice. Mice were randomized into four groups (5 mice for each group) and treated with LLL12B (2.5 mg/kg, oral gavage, once daily) and/or cisplatin (5 mg/kg, intraperitoneal injection, once every 4 days) or vehicle alone.

[9] = system: D425 medulloblastoma xenografts; test: D425 tumor xenograft model in nude mice; type: in vivo; details: for STAT3 phosphorylation in tumors: Western blot, LLL12B 2.5 mg/kg and/or cisplatin 5 mg/kg
Method: as §4
Figure 10 Anti-neoplastic activity of LLL12B and cisplatin combined treatment of D425 medulloblastoma xenografts. (A) Tumor volumes. (B) Tumor weights. (C) Body weights. (D) Protein analysis of the representative tumor samples by western blots. Expression levels of p-STAT3 (Y705), STAT3, CyclinD1, Survivin, and GAPDH. D245 medulloblastoma cells (1 × 10^7 cells/tumor) were implanted subcutaneously into the flank region of 4 to 5 week-old female athymic nude mice. Mice were randomized into four groups (5 mice for each group) and treated with LLL12B (2.5 mg/kg, oral gavage, once daily) and/or cisplatin (5 mg/kg, intraperitoneal injection, once every 4 days) or vehicle alone.

[10] = system: D425 medulloblastoma cells; test: Pilot orthotopic tumor model in vivo; parameters: species or system mice
STAT3 protein = system: STAT3 protein; parameters: method as in PMID 32412740; details: intact MCF-7 breast cancer cells; cited from earlier work
[11] = LLL12B 2.5 mg/kg oral daily and/or cisplatin 5 mg/kg ip every 4 days

CN(C)C(=O)Oc1cccc2c1C(=O)c1cccc(S(N)(=O)=O)c1C2=O [LLL12B]
Cmax compared to LLL12 ([1]; LLL12B 8 mg/kg vs LLL12 20 mg/kg): more than doubled | AUC ([1]; mouse, in vivo, 8 mg/kg): 1.36 µM·h | Cmax ([1]; mouse, in vivo, 8 mg/kg): 278 nM | bioavailability ([1]; mouse, in vivo, 8 mg/kg, read-out: Bioavailability (F)): 47.7% | Tmax ([1]; mouse, in vivo, po, 8 mg/kg, one time 8 mg/kg, read-out: oral Tmax): ~8 h | Tmax ([1]; mouse, in vivo, po, 8 mg/kg, read-out: Tmax): 7.68 h | STAT3 phosphorylation (Y705) ([2]; D283, D425, UW426, UW288 cells, 0.5 to 2.5 μM, 16 h): dose-dependently suppressed | P-STAT3 levels ([2]; UW426, UW288, D283 cells, 0.5, 1.0, 2.5 μM, 4 and 8 h): significantly reduced | expression of Cyclin D1 and Survivin (Cyclin D1 and Survivin): downregulated | P-AKT (P-AKT; D283 cells, 0.5 to 2.5 μM): induced | P-AKT (P-AKT; UW288 cells, 0.5 to 2.5 μM): some inhibition | P-AKT (P-AKT; UW426 cells, 2.5 μM): bound back | P-AKT (P-AKT; UW426 cells, 0.5 and 1.0 μM): reduced | P-ERK (P-ERK; D283 cells): did not generally inhibit | P-ERK (P-ERK; UW288 cells): some inhibition | P-ERK (P-ERK; UW426 cells): induced | IL-6 induced phosphorylation of STAT3 [3]: significantly inhibited | induction of phosphorylated STAT1 protein by INF-γ [4]: without affecting | cell viability [5]: could impede cell viability | caspase-3/7 activation (apoptosis) (active caspase-3/7): increased | tumorsphere formation [6]: numbers and sizes of tumorspheres decreased | tumorsphere formation [7]: numbers and sizes of tumorspheres decreased | suppression of tumor growth and tumor weights vs vehicle ([8]; 2.5 mg/kg oral gavage once daily): ~ 40% | suppression of tumor growth and tumor weights vs vehicle ([8]; 5 mg/kg oral gavage once daily): ~ 75% | body weight of mice ([8]; 2.5 or 5 mg/kg oral gavage once daily): no significant impact | P-STAT3(Y705) level in tumors ([8]; 2.5 or 5 mg/kg oral, Western blot vs vehicle): dose-dependently down-regulated | body weights [8, 11]: little effect | STAT3 phosphorylation in tumors [8]: reduced | body weights [9, 11]: little effect | STAT3 phosphorylation in tumors [9]: reduced | survival of mice with tumors [10]: limited extension of the survival

NS(=O)(=O)c1cccc2c1C(=O)c1cccc(O)c1C2=O [LLL12]
AUCall ([1]; 20 mg/kg): 0.0407 µM·h | Bioavailability (F) ([1]; 20 mg/kg): 2.73% | Cmax ([1]; 20 mg/kg): 176 nM | Tmax ([1]; 20 mg/kg): 0.083 h | oral Tmax ([1]; one time 20 mg/kg): 5 min | survival (average) ([10]; vehicle 19 days): 24 days | binding to STAT3 protein in intact cells (STAT3 protein): binds to STAT3 protein

N.N.[Cl][Pt][Cl] [cisplatin]
caspase-3/7 activation (apoptosis) (active caspase-3/7): increased | STAT3 phosphorylation in tumors [8]: reduce or partially reduce | STAT3 phosphorylation in tumors [9]: reduce or partially reduce
